Key:
human cathepsin K = human cathepsin K (UniProt P43236); experiment: Cathepsin K Assay (hrbCat K); type: biochemical; details: Z-Leu-Arg-AMC substrate, pH 5.5, 15 min preincubation; read-out: hrbCat K (IP (nM))
Outline: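 Human cathepsin K (0.4 nM) was preincubated 15 min at room temperature with compound in 50 mM MES pH 5.5, 2.5 mM EDTA, 2.5 mM DTT and 10% DMSO. Inhibition was fitted to a dose-response model.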

human cathepsin F = biological target: T1, human cathepsin F (Homo sapiens, UniProt Q9UBX1); experiment: Cathepsin F assay (hCat F); type: biochemical; details: Z-Phe-Arg-AMC substrate, pH 5.5, 15 min preincubation; read-out: hCat F (IP (nM))
T1 sequence (Q9UBX1 271-484): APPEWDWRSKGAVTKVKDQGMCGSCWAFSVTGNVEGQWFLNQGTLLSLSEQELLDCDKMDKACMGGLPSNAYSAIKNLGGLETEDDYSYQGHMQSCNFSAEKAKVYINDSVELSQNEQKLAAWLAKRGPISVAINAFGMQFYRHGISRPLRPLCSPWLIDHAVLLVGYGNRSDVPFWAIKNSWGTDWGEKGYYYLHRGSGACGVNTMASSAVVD
Outline: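 Enzyme (10 nM) was preincubated 15 min at room temperature with compounds (1/3 DMSO dilution series, 500–0.025 μM) in 50 mM MES pH 5.5, 2.5 mM EDTA, 2.5 mM DTT, 10% DMSO. Z-Phe-Arg-AMC (8 μM) was added and AMC fluorescence (Ex 360/Em 460 nm) followed for 20 min. % inhibition was fitted to dose-response curves.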

| SMILES | IC50 (human cathepsin K) [nM] | IC50 (human cathepsin F) [nM] |
| --- | --- | --- |
| N#CC1(NC(=O)[C@@H]2CCCC[C@H]2c2nc(CCC(F)(F)F)sc2-c2ccc(N3CCS(=O)(=O)CC3)cc2)CC1 [Example 24, (1R,2R)-N-(1-cyanocyclopropyl)-2-(5-(4-(1,1-dioxidothiomorpho-lino)phenyl)-2-(3,3,3-trifluoropropyl)thia-zol-4-yl)cyclohexane-carboxamide] | 5.6 | 2230 |
| CC(C)(C)c1nc([C@@H]2CC[C@H](F)C[C@H]2C(=O)NC2(C#N)CC2)c(-c2ccc(N3CCS(=O)(=O)CC3)cc2)s1 [Example 25, (1R,2R,5S)-2-(2-(tert-butyl)-5-(4-(1,1-dioxidothiomorpho-lino)phenyl)thiazol-4-yl)-N-(1-cyanocyclopropyl)-5-fluorocyclohexane-carboxamide] | 3.3 | 9260 |
| N#CC1(NC(=O)[C@@H]2CC(F)(F)CC[C@H]2c2nc(-c3ccc(F)cc3)sc2-c2ccc(N3CCS(=O)(=O)CC3)cc2)CC1 [Example 26, (1R,2R)-N-(1-cyanocyclopropyl)-2-(5-(4-(1,1-dioxidothiomorpho-lino)phenyl)-2-(4-fluorophenyl)thiazol-4-yl)-5,5-difluorocyclohexane-carboxamide] | 0.3 | 35 |
| N#CC1(NC(=O)[C@@H]2CCCC[C@H]2c2nc(-c3ccc(F)cc3)sc2-c2ccc(N3CCS(=O)(=O)CC3)cc2)CC1 [Example 27, (1R,2R)-N-(1-cyanocyclopropyl)-2-(5-(4-(1,1-dioxidothiomorpho-lino)phenyl)-2-(4-fluorophenyl)thiazol-4-yl)cyclohexane-carboxamide] | 0.6 | 1000 |
| N#CC1(NC(=O)[C@@H]2CCCC[C@H]2c2nc(-c3cccnc3)sc2-c2ccc(N3CCS(=O)(=O)CC3)cc2)CC1 [Example 37, (1R,2R)-N-(1-cyanocyclopropyl)-2-(5-(4-(1,1-dioxidothiomorpho-lino)phenyl)-2-(pyridin-3-yl)thiazol-4-yl)cyclohexane-carboxamide] | 0.5 | 2620 |
| N#CC1(NC(=O)[C@@H]2CCCC[C@H]2c2nc(-c3ccc(C(F)(F)F)nc3)sc2-c2ccc(N3CCS(=O)(=O)CC3)cc2)CC1 [Example 38, (1R,2R)-N-(1-cyanocyclopropyl)-2-(5-(4-(1,1-dioxidothiomorpho-lino)phenyl)-2-(6-(trifluoromethyl)pyridin-3-yl)thiazol-4-yl)cyclohexane-carboxamide] | 1.8 | 2060 |
| N#CC1(NC(=O)[C@@H]2CCCC[C@H]2c2nc(-c3ccon3)sc2-c2ccc(N3CCS(=O)(=O)CC3)cc2)CC1 [Example 39, (1R,2R)-N-(1-cyanocyclopropyl)-2-(5-(4-(1,1-dioxidothiomorpho-lino)phenyl)-2-(isoxazol-3-yl)thiazol-4-yl)cyclohexane-carboxamide] | 1 | 1360 |
| N#CC1(NC(=O)[C@@H]2CCCC[C@H]2c2nc(N3CCOCC3)sc2-c2ccc(N3CCS(=O)(=O)CC3)cc2)CC1 [Example 40, (1R,2R)-N-(1-cyanocyclopropyl)-2-(5-(4-(1,1-dioxidothiomorpho-lino)phenyl)-2-morpholinothiazol-4-yl)cyclohexane-carboxamide] | 1.8 | ≥ 10000 |
| N#CC1(NC(=O)[C@@H]2CCCC[C@H]2c2nc(-c3ccc(Cl)cn3)sc2-c2ccc(N3CCS(=O)(=O)CC3)cc2)CC1 [Example 41, (1R,2R)-2-(2-(5-chloropyridin-2-yl)-5-(4-(1,1-dioxidothiomorpho-lino)phenyl)thiazol-4-yl)-N-(1-cyanocyclopropyl) cyclohexanecarbox-amide] | 1.2 | 945 |
| CC(C)(O)c1ccc(-c2nc([C@@H]3CCCC[C@H]3C(=O)NC3(C#N)CC3)c(-c3ccc(N4CCS(=O)(=O)CC4)cc3)s2)cc1 [Example 43, (1R,2R)-N-(1-cyanocyclopropyl)-2-(5-(4-(1,1-dioxidothiomorpho-lino)phenyl)-2-(4-(2-hydroxypropan-2-yl)phenyl)thiazol-4-yl)cyclohexane-carboxamide] | 1.2 | 1110 |
| N#CC1(NC(=O)[C@@H]2CCCC[C@H]2c2nc(-c3cncc(F)c3)sc2-c2ccc(N3CCS(=O)(=O)CC3)cc2)CC1 [Example 44, (1R,2R)-N-(1-cyanocyclopropyl)-2-(5-(4-(1,1-dioxidothiomorpho-lino)phenyl)-2-(5-fluoropyridin-3-yl)thiazol-4-yl)cyclohexane-carboxamide] | 0.7 | 790 |
| N#CC1(NC(=O)[C@@H]2C[C@H](F)CC[C@H]2c2nc(-c3ccc(F)cc3)sc2-c2ccc(N3CCS(=O)(=O)CC3)cc2)CC1 [Example 45, (1R,2R,5R)-N-(1-cyanocyclopropyl)-2-(5-(4-(1,1-dioxidothiomorpho-lino)phenyl)-2-(4-fluorophenyl)thiazol-4-yl)-5-fluorocyclohexane-carboxamide] | 1.5 | 197 |
| N#CC1(NC(=O)[C@@H]2C[C@@H](F)CC[C@H]2c2nc(-c3cccnc3)sc2-c2ccc(N3CCS(=O)(=O)CC3)cc2)CC1 [Example 46, (1R,2R,5S)-N-(1-cyanocyclopropyl)-2-(5-(4-(1,1-dioxidothiomorpho-lino)phenyl)-2-(pyridin-3-yl)thiazol-4-yl)-5-fluorocyclohexane-carboxamide] | 1.1 | 1980 |
| N#CC1(NC(=O)[C@@H]2CCCC[C@H]2c2nc(-c3ccc(F)cn3)sc2-c2ccc(N3CCS(=O)(=O)CC3)cc2)CC1 [Example 47, (1R,2R)-N-(1-cyanocyclopropyl)-2-(5-(4-(1,1-dioxidothiomorpho-lino)phenyl)-2-(5-fluoropyridin-2-yl)thiazol-4-yl)cyclohexane-carboxamide] | 1.3 | 1520 |
| N#CC1(NC(=O)[C@@H]2CCCC[C@H]2c2nc(-c3cncc(Cl)c3)sc2-c2ccc(N3CCS(=O)(=O)CC3)cc2)CC1 [Example 48, (1R,2R)-2-(2-(5-chloropyridin-3-yl)-5-(4-(1,1-dioxidothiomorpho-lino)phenyl)thiazol-4-yl)-N-(1-cyanocyclopropyl) cyclohexanecarbox-amide] | 0.8 | 650 |

More lines, now with the values ahead:

| IC50 (human cathepsin K) [nM] | IC50 (human cathepsin F) [nM] | SMILES |
| --- | --- | --- |
| 2.3 | 63 | N#CC1(NC(=O)[C@@H]2CC(F)(F)CC[C@H]2c2nc(-c3ccc(F)cc3)sc2-c2ccc(C(=O)N3CCOCC3)cc2)CC1 [Example 28, (1R,2R)-N-(1-cyanocyclopropyl)-5,5-difluoro-2-(2-(4-fluorophenyl)-5-(4-(morpholine-4-carbonyl)phenyl)thi-azol-4-yl)cyclohexane-carboxamide] |
| 1.9 | 57 | CS(=O)(=O)N1CCN(C(=O)c2ccc(-c3sc(-c4ccc(F)cc4)nc3[C@@H]3CCC(F)(F)C[C@H]3C(=O)NC3(C#N)CC3)cc2)CC1 [Example 29, (1R,2R)-N-(1-cyanocyclopropyl)-5,5-difluoro-2-(2-(4-fluorophenyl)-5-(4-(4-(methylsulfonyl)piperazine-1-carbonyl)phenyl)thi-azol-4-yl)cyclohexane-carboxamide] |
| 2.2 | 51 | N#CC1(NC(=O)[C@@H]2CC(F)(F)CC[C@H]2c2nc(-c3ccc(F)cc3)sc2-c2ccc(C(=O)N3CCNC(=O)C3)cc2)CC1 [Example 30, (1R,2R)-N-(1-cyanocyclopropyl)-5,5-difluoro-2-(2-(4-fluorophenyl)-5-(4-(3-oxopiperazine-1-carbonyl)phenyl)thi-azol-4-yl)cyclohexane-carboxamide] |
| 3.4 | 73 | N#CC1(NC(=O)[C@@H]2CC(F)(F)CC[C@H]2c2nc(-c3ccc(F)cc3)sc2-c2ccc(C(=O)N3CCC(O)CC3)cc2)CC1 [Example 31, (1R,2R)-N-(1-cyanocyclopropyl)-5,5-difluoro-2-(2-(4-fluorophenyl)-5-(4-(4-hydroxypiperidine-1-carbonyl)phenyl)thi-azol-4-yl)cyclohexane-carboxamide] |
| 65.1 | 422 | N#CC1(NC(=O)[C@@H]2CCCC[C@H]2c2nc(-c3ccc(F)cc3)sc2-c2ccc(C(=O)N3CCOCC3)cc2)CC1 [Example 32, (1R,2R)-N-(1-cyanocyclopropyl)-2-(2-(4-fluorophenyl)-5-(4-(morpholine-4-carbonyl)phenyl)thi-azol-4-yl)cyclohexane-carboxamide] |
| 47 | 410 | CS(=O)(=O)N1CCN(C(=O)c2ccc(-c3sc(-c4ccc(F)cc4)nc3[C@@H]3CCCC[C@H]3C(=O)NC3(C#N)CC3)cc2)CC1 [Example 33, (1R,2R)-N-(1-cyanocyclopropyl)-2-(2-(4-fluorophenyl)-5-(4-(4-(methylsulfonyl)piperazine-1-carbonyl)phenyl)thi-azol-4-yl)cyclohexane-carboxamide] |
| 101 | 868 | N#CC1(NC(=O)[C@@H]2CCCC[C@H]2c2nc(-c3ccc(F)cc3)sc2-c2ccc(C(=O)N3CCC(O)CC3)cc2)CC1 [Example 34, (1R,2R)-N-(1-cyanocyclopropyl)-2-(2-(4-fluorophenyl)-5-(4-(4-hydroxypiperidine-1-carbonyl)phenyl)thi-azol-4-yl)cyclohexane-carboxamide] |
| 64.5 | 667 | N#CC1(NC(=O)[C@@H]2CCCC[C@H]2c2nc(-c3ccc(F)cc3)sc2-c2ccc(C(=O)N3CCNC(=O)C3)cc2)CC1 [Example 35, (1R,2R)-N-(1-cyanocyclopropyl)-2-(2-(4-fluorophenyl)-5-(4-(3-oxopiperazine-1-carbonyl)phenyl)thi-azol-4-yl)cyclohexane-carboxamide] |

Reference: patent US9573913B2, “Cathepsin cysteine protease inhibitors” (Merck Sharp & Dohme Corp., priority 2013, dated 2017)
